Holding throughout (test): NCI-60 cell line screen, 48 h
Assay [1] relates to HCC-2998 colon.
Assay [2] concerns HCT-15 colon.
The test system of assay [3] is HS 578T breast.
Assay [4] has as its system HT29 colon.
Assay [5] relates to IGROV1 ovarian.
The test system of assay [6] is KM12 colon.
Assay [7] concerns MCF7 breast.
Assay [8] concerns MDA-N.
In assay [9] the test system is SF-295 CNS.
Assay [10] has as its system SF-539 CNS.
The subject of assay [11] is SN12C renal.
Assay [12] concerns SNB-19 CNS.
Assay [13] has as its system SR leukemia.
The subject of assay [14] is U251 CNS.
Assay [15] concerns UACC-257 melanoma.
Assay [16] concerns UO-31 renal.

Among the data in PubChem BioAssay (NCI) are TGI values, retold here.

Each structure is given as a SMILES string.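 Test compounds were applied to cells in 96-well plates for 48 hours at 5 doses. Definition used: TGI = concentration required for complete inhibition of growth.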

As for `C=CCNC1=C2C[C@@H](C)C[C@@H](OC)[C@H](OC(=O)CN)[C@H](C)/C=C(\C)[C@@H](OC(N)=O)[C@H](OC)/C=C\C=C(/C)C(=O)NC(=CC1=O)C2=O`, the TGI in [1] was 1.29 µM; in assay [2], 22.5 µM; in assay [3], 80.1 µM; in assay [4] it was 17.6 µM; in assay [5], 15.5 µM; in assay [6], 9.87 µM. For the same molecule, the TGI worked out at 12.8 µM in assay [7]; 13 µM in [8]; 12.6 µM in assay [9]; 15.9 µM in [10]; 17.1 µM in assay [11]; 25.5 µM in assay [12]. The TGI in assay [13] is above 40 µM; in [14] it was 29.1 µM; in assay [15], 15.7 µM; in assay [16], 19.7 µM.
In the case of `COc1c(O)c2c(=O)cc(OC)c3c4c(OC)cc(=O)c5c(O)c(OC)c6c(c(c1C(C(C)=O)C6C(C)O)c23)c54` (configuration not stated), the TGI was found to be 1.06 µM in [1]; 2.25 µM in assay [2]; 1.81 µM in [3]; 0.267 µM in [4]; 1 µM in assay [5]; 1.07 µM in [6]. For the same molecule, the TGI came out at 1.54 µM in [7]; 2.34 µM in assay [8]; 2.05 µM in assay [9]; 1.87 µM in [10]; 2.94 µM in assay [11]; 0.413 µM in assay [12]. Besides, the TGI in assay [13] turned out to be 1.93 µM; in assay [14], 0.603 µM; in assay [15] it was 1.39 µM; in [16], 1.03 µM.
For `COc1ccc(/C=C2\N=C(NN)N=C2Cl)cc1`, the TGI in assay [1], in [2], in assay [3], in assay [4], in assay [5] and in [6] was above 100 µM throughout. In addition, the TGI in assay [7], in assay [8], in [9], in assay [10], in [11] and in assay [12] was above 100 µM throughout. Also, the TGI in [13], in [14], in assay [15] and in [16] was above 100 µM throughout.
With `CC(=O)OC1CC[C@]2(C)C3CC[C@@]4(C)C(CCC4[C@H](C)CCCC(C)C)[C@@H]3CCC2(Br)C1` (some centres not stated), the TGI in assay [1] was above 50 µM; in assay [2], 33.2 µM; in assay [3], 30.4 µM; in assay [4], above 50 µM; in assay [5] it was 29.7 µM; in assay [6] it was above 50 µM. Further, the TGI was 23.3 µM in [7]; above 50 µM in assay [8]; above 50 µM in assay [9]; 18.5 µM in assay [10]; above 50 µM in assay [11]; above 50 µM in assay [12]. The TGI in assay [13] is 24.8 µM; in [14], above 50 µM; in assay [15], above 50 µM; in [16] it was 24.6 µM.
Consider `O=C(c1ccccc1)c1sc2c(=O)c(C(=O)c3ccccc3)c(C(=O)c3ccccc3)sc2c(=O)c1C(=O)c1ccccc1`, for which the TGI was 44 µM in assay [1]; above 100 µM in [2]; above 100 µM in assay [3]; above 100 µM in assay [4]; 69.2 µM in [5]; above 100 µM in [6]. Moreover, the TGI in assay [7] was above 100 µM; in assay [8] it was above 100 µM; in assay [9], above 100 µM; in assay [10] it was 51.1 µM; in assay [11] it was above 100 µM; in assay [12], above 100 µM. The TGI in assay [13] was above 100 µM; in [14], above 100 µM; in [15], above 100 µM; in assay [16], 22.6 µM.
Turning to `COC(=O)c1ccccc1/C=C1\Cc2cc(C)c(C)cc2C1=O`, the TGI in [1], in assay [2], in assay [3], in assay [4], in assay [5] and in [6] was above 100 µM each time. Also, the TGI in [7], in [8], in assay [9], in assay [10], in [11] and in assay [12] was above 100 µM each time. Further, the TGI in [13] was above 100 µM; in [14] it was 96.8 µM; in assay [15] it was above 100 µM; in [16], above 100 µM.
Regarding `O=C1NC(N2CCCC(CO)C2)=N/C1=C\c1ccc(Cl)cc1` (configuration not stated), the TGI in assay [1], in assay [2], in assay [3], in assay [4], in assay [5] and in assay [6] was above 100 µM each time. In addition, the TGI in [7], in assay [8], in assay [9], in assay [10], in assay [11] and in [12] was above 100 µM throughout. Besides, the TGI in assay [13], in assay [14], in assay [15] and in assay [16] was above 100 µM each time.
